The subject of data set [1] is E. coli JT39. Nature of the data set: Antibacterial Activity (Example 4), M.I.C. In kind it is cell-based. Conditions: compound alone.
Data set [2] deals with P. mirabilis C889. Nature of the data set: Antibacterial Activity (Example 4), M.I.C. It is filed as cell-based, Proteus mirabilis. The settings on record: compound alone.
For data set [3], the system named is Kleb. aerogenes E70. Nature of the data set: Antibacterial Activity (Example 4), M.I.C. It is filed as cell-based, Klebsiella aerogenes. The settings on record: compound alone.
The test system of data set [4] is Staph. aureus Russell. Nature of the data set: Antibacterial Activity (Example 4), M.I.C. It is filed as cell-based. Conditions: compound alone.
The next data set concerns mice. Nature of the data set: Toxicity, intraperitoneal administration to mice. It is filed as in vivo. The settings on record: dosages up to 750 mg/kg. How it is done: The compound of Example 1 (Isomer II) was administered intraperitoneally to mice.
The subject of a further data set is Proteus mirabilis C889. Nature of the data set: Antibacterial Synergy (Example 13), MIC. In kind it is cell-based. How it is done: (§1) The MIC's of ampicillin, the product of Example 10 (synergist) and ampicillin in the presence of the product of Example 10 were determined for a range of bacteria.
The subject of data set [5] is E. coli JT39. Nature of the data set: Antibacterial Synergy (Example 13), MIC. In kind it is cell-based. How it is done: as §1
In data set [6] the test system is Staph. aureus Russell. Nature of the data set: Antibacterial Synergy (Example 13), MIC. It is filed as cell-based. How it is done:
as §1

The subject of the next data set is Klebsiella aerogenes E70. Nature of the data set: Antibacterial Synergy (Example 13), MIC. It is filed as cell-based. The protocol:
as §1

The next data set has as its system E. coli E96 (RTEM). In kind it is in vivo, mice infected with E. coli. The settings on record: amoxycillin alone; printed × 2 (dosed at 1 and 5 hours after infection); mice. How it is done:
Groups of mice were infected intraperitoneally with E. coli E96 (RTEM), and were then dosed at 1 and 5 hours after infection with amoxycillin or amoxycillin and the compound of Example 3.

Data set [7] relates to Staph. aureus Russell. Nature of the data set: Antibacterial Synergy (Example 4), MIC for ampicillin. It is filed as cell-based. Conditions: ampicillin alone, no inhibitor.
Data set [8] concerns E. coli JT39. The data set is described as above. In kind it is cell-based. Conditions: ampicillin alone, no inhibitor.
In data set [9] the test system is Kleb. aerogenes E70. The data set is described as above. In kind it is cell-based, Klebsiella aerogenes. The settings on record: ampicillin alone, no inhibitor.
Data set [10] concerns P. mirabilis C889. The description is as above. In kind it is cell-based, Proteus mirabilis. Conditions: ampicillin alone, no inhibitor.
The mark [11] stands for this setting: ampicillin + synergist at 20 μg/ml.

Bounds are passed on as bounds.

Turning to `O=C(OCc1ccccc1)C1CC=C2OC3CC(=O)N3C2C1` (single isomer, unassigned) [2 (Isomer II)], the M.I.C. in the data set with E. coli JT39 [1] is above 500 µg/mL; in the data set on P. mirabilis C889 [2], above 500 µg/mL; with Kleb. aerogenes E70 [3], above 500 µg/mL; in the data set with Staph. aureus Russell [4] it was 62.5 µg/mL.
On to `COC(=O)C1CC=C2OC3CC(=O)N3C2C1` (single isomer, unassigned) [Example 1 (Isomer II)], for which the M.I.C. with P. mirabilis C889 [2] was above 500 µg/mL; in the data set with Kleb. aerogenes E70 [3], above 500 µg/mL; with Staph. aureus Russell [4], 125 µg/mL. For the same compound, the “deaths after 10 days” value in the data set with mice was “no deaths were observed at dosages up to 750 mg/kg”.
As for `O=C(O)C1CC=C2O[C@@H]3CC(=O)N3C2C1` (single isomer, unassigned) [Example 10], the “MIC Ampicillin” value with Proteus mirabilis C889 (setting [11]), with E. coli JT39 [5] (setting [11]) and with Klebsiella aerogenes E70 (setting [11]) was “inhibition” in each case. Besides, the MIC – broadly, the smallest concentration in the dilution series that meets the test's criterion for growth inhibition – was found to be 31.2 µg/mL in the data set on Proteus mirabilis C889 (synergist alone); 16 µg/mL in the data set with E. coli JT39 [5] (Escherichia coli, synergist alone); 125 µg/mL with Staph. aureus Russell [6] (Staphylococcus aureus, synergist alone); 31.2 µg/mL in the data set on Klebsiella aerogenes E70 (synergist alone).
In turn, `CC1(C)S[C@@H]2[C@H](NC(=O)[C@H](N)c3ccc(O)cc3)C(=O)N2[C@H]1C(=O)O` [Amoxycillin, amoxycillin] displayed a CD50 with E. coli E96 (RTEM) of 1000 mg/kg.
`O=C(O)[C@H]1CC=C2O[C@@H]3CC(=O)N3[C@H]2C1` [Example 3, Sodium (1S, 5R)-Δ^7,8-3-oxo-6-oxa-2-azatricyclo-[5.4.0.0^2,5]undecene-10-carboxylate]: the M.I.C. with E. coli JT39 [1] is 250 µg/mL; in the data set on P. mirabilis C889 [2] it was above 500 µg/mL; in the data set on Kleb. aerogenes E70 [3], above 500 µg/mL; with Staph. aureus Russell [4], 125 µg/mL.
Turning to `CC1(C)S[C@@H]2[C@H](NC(=O)[C@H](N)c3ccccc3)C(=O)N2[C@H]1C(=O)O` [ampicillin, reference compound], the MIC for ampicillin in the data set with Staph. aureus Russell [7] was above 500 µg/mL; with E. coli JT39 [8], 500 µg/mL; in the data set with Kleb. aerogenes E70 [9], 2000 µg/mL; with P. mirabilis C889 [10], 2000 µg/mL. In addition, the “MIC Ampicillin” value in the data set with Proteus mirabilis C889 (synergist concentration 0) was above 2000 µg/mL; with E. coli JT39 [5] (synergist concentration 0) it was above 2000 µg/mL; in the data set with Staph. aureus Russell [6] (synergist concentration 0), 500 µg/mL; in the data set on Klebsiella aerogenes E70 (synergist concentration 0) it was 500 µg/mL.

(Values after patent US4415584A, “3-Oxo-6-oxa-2-azatricyclo 5.4.2. unadecene-4-carboxylate” (Beecham Group Limited, priority 1978, dated 1983).)
